Assay results: patent US20050186274A1, “Multilayer tablet” (Boehringer Ingelheim International GmbH, priority 2004, published 2005)

Experiments:
[1] = Dissolution rate of HCTZ from tablet matrix; format: physicochemical; conditions: from a dissolving matrix as compared with dissolution from a disintegrating tablet
[2] = physiological pH range of the gastrointestinal tract, pH 1 to 7; free acid form; cited from earlier work

SMILES	dissolution rate of HCTZ [1]	solubility in aqueous systems [2]
NS(=O)(=O)c1cc2c(cc1Cl)NCNS2(=O)=O [HCTZ, 6-chloro-3,4-dihydro-2H-1,2,4-benzothiadiazine-7-sulfonamide-1,1-dioxide]	reduced dissolution rate	
CCCc1nc2c(C)cc(-c3nc4ccccc4n3C)cc2n1Cc1ccc(-c2ccccc2C(=O)O)cc1 [Telmisartan, 4′-[2-n-propyl-4-methyl-6-(1-methylbenzimidazol-2-yl)-benzimidazol-1-ylmethyl]-biphenyl-2-carboxylic acid]		very poor solubility
